{
  "source": "patent US5723299A",
  "about": "“Somatostatin receptors” (Arch Development Corporation, priority 1995, dated 1998)",
  "key": {"[1]": {"test_system": "growth hormone, insulin, glucagon, gastric acid and pancreatic exocrine secretion", "details": "background, Brazeau et al., 1973, Wass, 1989, cited from earlier work"}, "[2]": {"test_system": "somatostatin receptor proteins (58-kDa, 42-kDa, 27-kDa)", "details": "background; AtT-20 and GH3 cells; cited from earlier work"}, "[3]": {"test_system": "58 to 60-kDa somatostatin receptor protein", "details": "background; rat brain and AtT-20 cells; cited from earlier work"}, "hGPR81 (SSTR1) [4]": {"molecular_target": "T1, hGPR81 (SSTR1) (Homo sapiens, UniProt P30872)", "T1 construct": "in vitro transcribed RNA injected into Xenopus laevis oocytes", "T1 sequence (P30872 whole entry)": "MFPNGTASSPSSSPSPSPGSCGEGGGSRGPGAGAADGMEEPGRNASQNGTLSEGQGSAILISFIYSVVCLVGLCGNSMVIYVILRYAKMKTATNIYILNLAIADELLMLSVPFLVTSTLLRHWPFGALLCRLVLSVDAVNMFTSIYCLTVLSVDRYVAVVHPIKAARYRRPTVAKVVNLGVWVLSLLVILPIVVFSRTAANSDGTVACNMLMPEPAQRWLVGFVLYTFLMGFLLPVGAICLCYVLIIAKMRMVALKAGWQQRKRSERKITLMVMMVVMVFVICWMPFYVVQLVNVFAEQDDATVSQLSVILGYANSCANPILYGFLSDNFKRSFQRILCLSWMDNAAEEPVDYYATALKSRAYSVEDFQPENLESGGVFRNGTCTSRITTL", "assay": "Ca^2+ efflux in oocytes injected with hGPR81 RNA", "assay_type": "cell-based", "details": "laevis oocytes injected with in vitro transcribed RNA", "description": "(§1) Since the presence of a short cytoplasmic loop connecting transmembrane segments M5-M6 is a feature of G protein-coupled receptors that bind peptide hormones and neuropeptides (E. M. Ross, 1990), peptides known to regulate hormone secretion from pancreatic islets were tested as ligands for hGPR81. Initial attempts to identify the ligand for hGPR81 by injecting RNA transcribed in vitro into fenopus laevis oocytes (Kayano et al., 1990) and assessing changes in basal or stimulated cAMP levels in response to […] [calcitonin-gene-related peptide, gastric inhibitory polypeptide, glucagon, glucagon-like peptide 1-(7-36 amide), and vasoactive intestinal peptide], or Ca^2+ efflux (Williams et al., 1988) (angiotensin II, bombesin, cholecystokinin, and vasopressin) were unsuccessful. The binding of radiolabeled peptides (galanin, glucagon and somatostatin) to COS-7 cells transiently expressing hGPR81 was attempted, as well."}, "hGPR81 (SSTR1) [5]": {"molecular_target": "T1, hGPR81 (SSTR1)", "assay": "Changes in basal or stimulated cAMP levels in oocytes injected with hGPR81 RNA", "assay_type": "cell-based", "details": "laevis oocytes injected with in vitro transcribed RNA", "description": "as §1"}},
  "note": "Where two headings read alike, the source gives them in different places.",
  "data": [
    {"compound": "somatostatin-14", "values": [
      {"measurement": "inhibition of secretion", "setting": "[1]", "result": "relatively more selective for inhibition of glucagon and gastric acid secretion"},
      {"measurement": "inhibition of secretion", "setting": "[1]; listed as Somatostatin", "result": "potent inhibitor of growth hormone secretion"},
      {"measurement": "inhibition of labeling of somatostatin receptor proteins", "setting": "[2]", "result": "sensitive to inhibition"},
      {"measurement": "binding to 58 to 60-kDa receptor protein", "setting": "[3]", "result": "high affinity and specificity"}
    ]},
    {"compound": "angiotensin II: peptide known to regulate hormone secretion from pancreatic islets (DRVYIHPF)", "values": [
      {"measurement": "identification as ligand for hGPR81 by Ca^2+ efflux", "setting": "hGPR81 (SSTR1) [4]", "result": "unsuccessful"}
    ]},
    {"compound": "gastric inhibitory polypeptide: peptide known to regulate hormone secretion from pancreatic islets", "values": [
      {"measurement": "identification as ligand for hGPR81 by changes in basal or stimulated cAMP levels", "setting": "hGPR81 (SSTR1) [5]", "result": "unsuccessful"}
    ]},
    {"compound": "glucagon: peptide known to regulate hormone secretion from pancreatic islets", "values": [
      {"measurement": "identification as ligand for hGPR81 by changes in basal or stimulated cAMP levels", "setting": "hGPR81 (SSTR1) [5]", "result": "unsuccessful"}
    ]},
    {"compound": "NC(=O)CC[C@@H]1NC(=O)[C@H](Cc2ccccc2)NC(=O)[C@H](Cc2ccc(O)cc2)NC(=O)[C@@H](N)CSSC[C@@H](C(=O)N2CCC[C@H]2C(=O)N[C@@H](CCCN=C(N)N)C(=O)NCC(N)=O)NC(=O)[C@H](CC(N)=O)NC1=O", "note": "[vasopressin]", "values": [
      {"measurement": "identification as ligand for hGPR81 by Ca^2+ efflux", "setting": "hGPR81 (SSTR1) [4]", "result": "unsuccessful"}
    ]},
    {"compound": "somatostatin-28: bioactive form of somatostatin derived via tissue-specific proteolytic processing of prosomatostatin (Bachem)", "values": [
      {"measurement": "inhibition of secretion", "setting": "[1]", "result": "more specific inhibitor of growth hormone, insulin and pancreatic exocrine secretion"},
      {"measurement": "binding to 58 to 60-kDa receptor protein", "setting": "[3]", "result": "high affinity and specificity"}
    ]},
    {"compound": "Nc1nc2c(ncn2[C@@H]2O[C@H](COP(=O)(O)OP(=O)(O)OP(=O)(O)O)[C@@H](O)[C@H]2O)c(=O)[nH]1", "note": "[GTP]", "values": [
      {"measurement": "inhibition of labeling of somatostatin receptor proteins", "setting": "[2]", "result": "sensitive to inhibition"}
    ]},
    {"compound": "calcitonin-gene-related peptide", "values": [
      {"measurement": "identification as ligand for hGPR81 by changes in basal or stimulated cAMP levels", "setting": "hGPR81 (SSTR1) [5]", "result": "unsuccessful"}
    ]},
    {"compound": "bombesin", "values": [
      {"measurement": "identification as ligand for hGPR81 by Ca^2+ efflux", "setting": "hGPR81 (SSTR1) [4]", "result": "unsuccessful"}
    ]},
    {"compound": "glucagon-like peptide 1-(7-36 amide)", "values": [
      {"measurement": "identification as ligand for hGPR81 by changes in basal or stimulated cAMP levels", "setting": "hGPR81 (SSTR1) [5]", "result": "unsuccessful"}
    ]},
    {"compound": "vasoactive intestinal peptide: peptide known to regulate hormone secretion from pancreatic islets", "values": [
      {"measurement": "identification as ligand for hGPR81 by changes in basal or stimulated cAMP levels", "setting": "hGPR81 (SSTR1) [5]", "result": "unsuccessful"}
    ]}
  ]
}
